In patent publication US20060199821A1, “Heterocyclic amides and sulfonamides” (Scios, Inc., priority 2003, published 2006) one finds IC50 data, which are given here for seven molecules.

Structures are written as SMILES. A value given as a limit tells only on which side of the number the result lay.

Chain of p38-α kinase (Q16539 whole entry): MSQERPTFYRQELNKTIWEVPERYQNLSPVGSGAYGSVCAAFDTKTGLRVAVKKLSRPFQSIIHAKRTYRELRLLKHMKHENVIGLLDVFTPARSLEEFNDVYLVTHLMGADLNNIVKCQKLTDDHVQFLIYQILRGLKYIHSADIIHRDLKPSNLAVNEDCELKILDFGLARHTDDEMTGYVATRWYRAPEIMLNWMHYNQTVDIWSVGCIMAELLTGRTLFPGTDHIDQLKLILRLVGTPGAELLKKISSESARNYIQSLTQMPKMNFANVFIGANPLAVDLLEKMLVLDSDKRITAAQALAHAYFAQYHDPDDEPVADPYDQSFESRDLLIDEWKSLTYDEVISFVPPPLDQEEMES

The assay has as its target p38-α kinase (Homo sapiens, UniProt Q16539). Nature of the assay: Human whole blood assay for p38 kinase inhibition, diluted (1:10) whole blood, LPS-induced TNF-α by ELISA. It is filed as cell-based. As to conditions: LPS-stimulated TNF-α production. The procedure:
For each of the assay procedures described below, the TNF-α production correlates to the activity of p38-α kinase.
A. Human Whole Blood Assay for p38 Kinase Inhibition
Venous blood is collected from healthy male volunteers into a heparinized syringe and is used within 2 hours of collection. Test compounds are dissolved in 100% DMSO and 1 μl aliquots of drug concentrations ranging from 0 to 1 mM are dispensed into quadruplicate wells of a 24-well microtiter plate (Nunclon Delta SI, Applied Scientific, So. San Francisco, Calif.). Whole blood is added at a volume of 1 ml/well and the mixture is incubated for 15 minutes with constant shaking (Titer Plate Shaker, Lab-Line Instruments, Inc., Melrose Park, Ill.) at a humidified atmosphere of 5% CO2 at 37° C. Whole blood is cultured either undiluted or at a final dilution of 1:10 with RPMI 1640 (Gibco 31800+NaHCO3, Life Technologies, Rockville, Md. and Scios, Inc., Sunnyvale, Calif.). At the end of the incubation period, 10 μl of LPS (E. coli 0111:B4, Sigma Chemical Co., St. Louis, Mo.) is added to each well to a final concentration of 1 or 0.1 μg/ml for undiluted or 1:10 diluted whole blood, respectively. The incubation is continued for an additional 2 hours. The reaction is stopped by placing the microtiter plates in an ice bath and plasma or cell-free supernates are collected by centrifugation at 3000 rpm for 10 minutes at 4° C. The plasma samples are stored at −80° C. until assayed for TNF-α levels by ELISA, following the directions supplied by Quantikine Human TNF-α assay kit (R&D Systems, Minneapolis, Minn.).
IC50 values are calculated using the concentration of inhibitor that causes a 50% decrease as compared to a control. IC50 values can be determined with curve-fitting plots available with common software packages. Approximate IC50 values can be calculated using formula: IC50 (app)=A×i/(1−A)
where A=fractional activity and i=total inhibitor concentration.
IC50 values are calculated using the concentration of inhibitor that causes a 50% decrease as compared to a control.
For orientation: An ELISA detects its analyte on a solid surface through an enzyme-linked reagent.
What is called IC50 is the concentration at which inhibition is half-maximal. A higher IC50 goes with weaker potency in that assay. For the molecule `C[C@H](Nc1nccc(N(Cc2ccc(F)cc2)C(=O)c2ccc3ccccc3c2)n1)c1ccccc1` [Example 70], the IC50 is < 1000 nM.
For `CCN(C(=O)c1ccc2c(c1)CCO2)c1ccnc(N[C@@H](C)c2ccccc2)n1` [Example 84], the IC50 was < 1000 nM.
`C[C@H](Nc1nccc(N(C)C(=O)c2ccc3ccccc3c2)n1)c1ccccc1` [Example 77]: the 50% inhibitory concentration (IC50) is < 1000 nM.
In the case of `CCN(C(=O)c1ccc2ccccc2c1)c1ccnc(N[C@@H](C)c2ccccc2)n1` [Example 20, Naphthalene-2-carboxylic acid ethyl-[2-(1S-phenyl-ethylamino)-pyrimidin-4-yl]-amide], the IC50 is < 1000 nM.
In the case of `CC(C)N(C(=O)c1ccc2ccccc2c1)c1ccnc(N[C@@H](C)c2ccccc2)n1` [Example 73], the half-inhibitory concentration (IC50) was < 1000 nM.
The figure for `C[C@H](Nc1nccc(N(Cc2cccnc2)C(=O)c2ccc3ccccc3c2)n1)c1ccccc1` [Example 83] is < 1000 nM; for `COCCN(C(=O)c1ccc2ccccc2c1)c1ccnc(N[C@@H](C)c2ccccc2)n1` [Example 76] it is < 1000 nM.
